± gives the uncertainty stated by the source.
Test: xn = mol fraction of the nth substance listed

COC(C)=O + COCCO
viscosity [mPa·s], 101 kPa
Details | x2 = 0.0993 | x2 = 0.2004 | x2 = 0.2993 | x2 = 0.4009 | x2 = 0.4996 | x2 = 0.6014 | x2 = 0.7013 | x2 = 0.8006 | x2 = 0.9001
298.15 K | 0.429 ± 0.036 | 0.484 ± 0.041 | 0.549 ± 0.046 | 0.636 ± 0.053 | 0.729 ± 0.061 | 0.862 ± 0.072 | 1.012 ± 0.084 | 1.218 ± 0.1 | 1.453 ± 0.12
303.15 K | 0.407 ± 0.034 | 0.457 ± 0.039 | 0.517 ± 0.043 | 0.596 ± 0.05 | 0.679 ± 0.057 | 0.797 ± 0.067 | 0.929 ± 0.077 | 1.112 ± 0.093 | 1.317 ± 0.11
308.15 K | 0.387 ± 0.033 | 0.432 ± 0.036 | 0.486 ± 0.041 | 0.556 ± 0.047 | 0.632 ± 0.053 | 0.738 ± 0.062 | 0.858 ± 0.072 | 1.025 ± 0.085 | 1.2 ± 0.1

COc1ccccc1N + COCCO
303.15 K, 101 kPa
Details | viscosity [mPa·s]
x1 = 0.0724 | 2.225 ± 0.041
x1 = 0.1494 | 2.507 ± 0.046
x1 = 0.2314 | 2.808 ± 0.051
x1 = 0.319 | 3.132 ± 0.057
x1 = 0.4127 | 3.478 ± 0.063
x1 = 0.5131 | 3.794 ± 0.069
x1 = 0.6211 | 4.083 ± 0.074
x1 = 0.7376 | 4.343 ± 0.079
x1 = 0.8635 | 4.614 ± 0.084

c1ccc2ncccc2c1 + COc1ccccc1O
303.15 K, 101 kPa
Details | viscosity [mPa·s]
x1 = 0.1 | 5.95 ± 0.16
x1 = 0.2 | 8.05 ± 0.22
x1 = 0.3 | 10.04 ± 0.27
x1 = 0.333 | 10.54 ± 0.29
x1 = 0.36 | 10.97 ± 0.3
x1 = 0.38 | 11.45 ± 0.31
x1 = 0.4 | 11.65 ± 0.32
x1 = 0.44 | 11.66 ± 0.32
x1 = 0.46 | 11.57 ± 0.32
x1 = 0.5 | 10.95 ± 0.3
x1 = 0.6 | 8.98 ± 0.24
x1 = 0.7 | 6.77 ± 0.18
x1 = 0.8 | 4.87 ± 0.13
x1 = 0.9 | 3.88 ± 0.1

CCC(C)=O + CS(C)=O
viscosity [mPa·s], 101.3 kPa
Details | 298.15 K | 308.15 K | 318.15 K
x1 = 0.054 | 1.762 ± 0.046 | 1.448 ± 0.038 | 1.23 ± 0.032
x1 = 0.107 | 1.615 ± 0.043 | 1.335 ± 0.035 | 1.142 ± 0.03
x1 = 0.213 | 1.372 ± 0.036 | 1.138 ± 0.03 | 0.982 ± 0.026
x1 = 0.317 | 1.162 ± 0.031 | 0.979 ± 0.026 | 0.852 ± 0.023
x1 = 0.419 | 0.988 ± 0.026 | 0.83 ± 0.022 | 0.734 ± 0.019
x1 = 0.52 | 0.835 ± 0.022 | 0.712 ± 0.019 | 0.639 ± 0.017
x1 = 0.619 | 0.717 ± 0.019 | 0.621 ± 0.017 | 0.561 ± 0.015
x1 = 0.716 | 0.627 ± 0.017 | 0.547 ± 0.015 | 0.496 ± 0.013
x1 = 0.812 | 0.54 ± 0.014 | 0.473 ± 0.013 | 0.436 ± 0.012
x1 = 0.907 | 0.462 ± 0.012 | 0.407 ± 0.011 | 0.383 ± 0.01
x1 = 0.954 | 0.438 ± 0.012 | 0.379 ± 0.01 | 0.361 ± 0.01

OCCNCCO + C[N+](C)(C)CCO.[Cl-]
viscosity [mPa·s], 101 kPa
Details | x2 = 0.091 | x2 = 0.111 | x2 = 0.143
293.15 K | 611.4 ± 38 | 565.3 ± 35 | 567 ± 35
313.15 K | 151.4 ± 7.5 | 150.4 ± 7.4 | 149.2 ± 7.3

CCC(C)=O + Cc1ccc(C)cc1
307.35 K, 101.33 kPa
Details | viscosity [mPa·s]
x1 = 0.1273 | 0.515 ± 0.0094
x1 = 0.311 | 0.48 ± 0.0091
x1 = 0.3949 | 0.457 ± 0.0089
x1 = 0.5326 | 0.434 ± 0.0087
x1 = 0.5913 | 0.419 ± 0.0086
x1 = 0.6949 | 0.401 ± 0.0084
x1 = 0.7871 | 0.388 ± 0.0083

COC(C)=O + Cc1ccc(C)cc1
viscosity [mPa·s], 101 kPa
Details | 298.15 K | 308.15 K
x1 = 0.0478 | 0.592 ± 0.005 | 0.521 ± 0.004
x1 = 0.1516 | 0.548 ± 0.005 | 0.49 ± 0.004
x1 = 0.2496 | 0.514 ± 0.004 | 0.465 ± 0.004
x1 = 0.3526 | 0.483 ± 0.004 | 0.442 ± 0.004
x1 = 0.4453 | 0.46 ± 0.004 | 0.423 ± 0.004
x1 = 0.492 | 0.449 ± 0.004 | 0.415 ± 0.004
x1 = 0.5525 | 0.437 ± 0.004 | 0.404 ± 0.004
x1 = 0.6515 | 0.42 ± 0.004 | 0.389 ± 0.004
x1 = 0.7506 | 0.406 ± 0.004 | 0.376 ± 0.004
x1 = 0.8511 | 0.395 ± 0.004 | 0.365 ± 0.004
x1 = 0.9428 | 0.388 ± 0.004 | 0.356 ± 0.004

COC(C)=O + Cc1cccc(C)c1
viscosity [mPa·s], 101 kPa
Details | 298.15 K | 308.15 K
x1 = 0.0409 | 0.565 ± 0.005 | 0.515 ± 0.004
x1 = 0.151 | 0.524 ± 0.004 | 0.484 ± 0.004
x1 = 0.2488 | 0.493 ± 0.004 | 0.46 ± 0.004
x1 = 0.3516 | 0.466 ± 0.004 | 0.438 ± 0.004
x1 = 0.4423 | 0.446 ± 0.004 | 0.421 ± 0.004
x1 = 0.4928 | 0.436 ± 0.004 | 0.412 ± 0.004
x1 = 0.5514 | 0.426 ± 0.004 | 0.403 ± 0.004
x1 = 0.6505 | 0.412 ± 0.004 | 0.388 ± 0.004
x1 = 0.7498 | 0.4 ± 0.004 | 0.376 ± 0.004
x1 = 0.8506 | 0.392 ± 0.004 | 0.364 ± 0.004
x1 = 0.9429 | 0.386 ± 0.004 | 0.356 ± 0.004

c1ccc2ncccc2c1 + Cc1cccc(O)c1
viscosity [mPa·s], 101.3 kPa
Details | x1 = 0.0998 | x1 = 0.198 | x1 = 0.3012 | x1 = 0.3984 | x1 = 0.4984 | x1 = 0.5985 | x1 = 0.6965 | x1 = 0.798 | x1 = 0.8948
298 K | 15.26 ± 0.35 | 19.93 ± 0.52 | 25.3 ± 0.72 | 22.87 ± 0.62 | 15.79 ± 0.36 | 11.02 ± 0.19 | 7.376 ± 0.094 | 5.594 ± 0.047 | 4.358 ± 0.041
303 K | 11.51 ± 0.22 | 15.03 ± 0.34 | 19.24 ± 0.49 | 17.85 ± 0.43 | 12.71 ± 0.24 | 8.925 ± 0.12 | 6.266 ± 0.058 | 4.872 ± 0.042 | 3.761 ± 0.033
308 K | 8.895 ± 0.14 | 11.46 ± 0.21 | 15.1 ± 0.33 | 14.05 ± 0.29 | 9.986 ± 0.16 | 7.269 ± 0.082 | 5.301 ± 0.046 | 4.223 ± 0.037 | 3.291 ± 0.028
313 K | 6.912 ± 0.084 | 8.917 ± 0.13 | 11.94 ± 0.22 | 11.42 ± 0.2 | 8.111 ± 0.11 | 6.172 ± 0.057 | 4.512 ± 0.042 | 3.686 ± 0.032 | 2.959 ± 0.025
318 K | 5.586 ± 0.051 | 7.128 ± 0.083 | 9.595 ± 0.18 | 9.188 ± 0.16 | 6.608 ± 0.065 | 5.184 ± 0.048 | 3.835 ± 0.031 | 3.204 ± 0.029 | 2.62 ± 0.022

Reference: the CheMixHub viscosity set
